Assay results taken from ChEMBL document CHEMBL1148468, “Design and synthesis of novel cyanoguanidine ATP-sensitive potassium channel openers for the treatment of overactive bladder” (Bioorg Med Chem Lett, 2004).
pEC50: −log10 of the molar value.

Tests used:
[1] = target: Sulfonylurea receptors; K-ATP channels (Sus scrofa); assay: In vitro functional potassium channel opening activity in tissue strips obtained from Landrace pig bladders(LPD)
[2] = target: Sulfonylurea receptor 2, Kir6.2 (Homo sapiens, UniProt O60706+Q14654); assay: (§1) In vitro ATP-sensitive potassium channel (KATP) activity in cells expressing human KATP channels Kir6.2 and sulfonylurea receptor 2B; type: functional
[3] = target: Sulfonylurea receptor 2, Kir6.2 (Homo sapiens) (UniProt Q14654+O60706); assay: as §1; type: functional; details: filed as antagonist

Sequence of Sulfonylurea receptor 2, Kir6.2 (Q14654 whole entry): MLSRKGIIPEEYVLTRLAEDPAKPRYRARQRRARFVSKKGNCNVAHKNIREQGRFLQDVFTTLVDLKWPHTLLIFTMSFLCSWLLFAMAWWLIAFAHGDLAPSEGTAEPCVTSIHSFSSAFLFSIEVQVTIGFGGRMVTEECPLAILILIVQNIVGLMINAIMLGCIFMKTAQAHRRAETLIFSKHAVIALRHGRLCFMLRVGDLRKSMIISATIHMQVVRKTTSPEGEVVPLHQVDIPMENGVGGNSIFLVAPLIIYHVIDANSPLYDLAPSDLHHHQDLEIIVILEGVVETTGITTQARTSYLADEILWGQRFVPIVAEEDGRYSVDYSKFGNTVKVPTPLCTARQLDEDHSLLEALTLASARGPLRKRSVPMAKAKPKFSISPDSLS
Sequence of Sulfonylurea receptor 2, Kir6.2 (O60706 whole entry): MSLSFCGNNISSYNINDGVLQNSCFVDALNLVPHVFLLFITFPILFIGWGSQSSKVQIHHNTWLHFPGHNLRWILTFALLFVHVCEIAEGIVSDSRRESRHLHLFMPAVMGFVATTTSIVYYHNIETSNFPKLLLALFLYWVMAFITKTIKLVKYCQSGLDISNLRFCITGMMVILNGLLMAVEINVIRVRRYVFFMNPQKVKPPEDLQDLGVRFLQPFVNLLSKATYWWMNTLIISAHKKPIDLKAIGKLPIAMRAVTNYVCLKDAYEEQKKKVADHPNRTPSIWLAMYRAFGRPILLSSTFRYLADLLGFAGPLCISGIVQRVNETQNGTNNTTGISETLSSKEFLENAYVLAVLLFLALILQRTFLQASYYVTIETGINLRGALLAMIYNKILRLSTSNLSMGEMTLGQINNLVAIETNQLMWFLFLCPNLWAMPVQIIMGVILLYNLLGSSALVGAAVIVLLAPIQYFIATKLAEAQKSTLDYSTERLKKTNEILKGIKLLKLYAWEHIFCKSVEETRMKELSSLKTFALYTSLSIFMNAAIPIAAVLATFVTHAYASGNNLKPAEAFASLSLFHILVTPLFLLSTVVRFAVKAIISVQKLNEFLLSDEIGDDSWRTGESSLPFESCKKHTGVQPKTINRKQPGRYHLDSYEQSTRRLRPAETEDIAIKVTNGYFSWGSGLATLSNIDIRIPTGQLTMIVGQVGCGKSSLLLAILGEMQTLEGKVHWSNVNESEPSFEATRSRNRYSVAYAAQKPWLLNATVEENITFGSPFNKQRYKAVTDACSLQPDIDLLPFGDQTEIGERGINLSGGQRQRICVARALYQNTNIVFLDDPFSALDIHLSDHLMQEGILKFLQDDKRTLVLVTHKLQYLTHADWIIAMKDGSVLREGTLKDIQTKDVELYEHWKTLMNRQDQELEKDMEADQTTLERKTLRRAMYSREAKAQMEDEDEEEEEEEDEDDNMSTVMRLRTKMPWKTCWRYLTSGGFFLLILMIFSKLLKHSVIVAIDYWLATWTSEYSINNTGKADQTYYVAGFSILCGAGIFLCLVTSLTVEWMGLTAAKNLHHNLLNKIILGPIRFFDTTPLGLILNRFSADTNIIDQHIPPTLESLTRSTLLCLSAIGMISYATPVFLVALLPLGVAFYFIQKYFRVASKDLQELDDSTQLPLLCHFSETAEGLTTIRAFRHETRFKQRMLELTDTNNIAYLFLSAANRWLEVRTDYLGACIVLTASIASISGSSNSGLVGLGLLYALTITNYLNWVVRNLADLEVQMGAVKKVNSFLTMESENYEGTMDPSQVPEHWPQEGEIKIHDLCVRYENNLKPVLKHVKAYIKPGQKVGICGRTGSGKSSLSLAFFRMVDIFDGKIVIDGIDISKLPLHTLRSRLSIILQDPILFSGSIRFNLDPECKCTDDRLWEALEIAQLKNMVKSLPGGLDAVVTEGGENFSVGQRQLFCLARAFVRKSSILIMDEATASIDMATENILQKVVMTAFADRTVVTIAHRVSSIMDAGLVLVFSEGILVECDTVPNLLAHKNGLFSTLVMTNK

Structure (SMILES) | pEC50 [1] | pEC50 [2] | Log EC50 [3]
CC(Cl)(Cl)[C@H](NC(=O)c1ccc(Cl)cc1)N/C(=N/c1cccnc1)NC#N | 4.70 | 5.00 | –
CC(C)(C)C(NC(=O)c1ccc(Cl)cc1)N/C(=N/c1cccnc1)N[N+](=O)[O-] (stereo not drawn) | 5.10 | 4.50 | –
CCCCC(C)(C)C(NC(=O)c1ccc(Cl)cc1)N/C(=N/c1cccnc1)NC#N (stereo not drawn) | – | < 4.00 | –
CC(C)(C)C(NC(=O)c1ccc(Cl)cc1)N/C(=N/c1cccnc1)NS(N)(=O)=O (stereo not drawn) | – | < 4.00 | –
CC(C)(C)C(NC(=O)c1ccc(Cl)cc1)N/C(=N/c1cccnc1)NC#N (stereo not drawn) | 4.70 | 5.20 | –
C=CCC(C)(C)C(NC(=O)c1ccc(Cl)cc1)NC(=NC#N)Nc1cccnc1 (stereo not drawn) | – | 4.70 | –
CC(C)(C)C(NC(=O)c1ccc(Cl)cc1)NC(Nc1cccnc1)=C(C#N)C#N (stereo not drawn) | – | – | Antagonist
CC(C)(C)C(NC(=O)c1ccc(Cl)cc1)N/C(=C/[N+](=O)[O-])Nc1cccnc1 (stereo not drawn) | – | < 4.00 | –
CC(Cl)(Cl)C(NC(=O)c1ccc(Br)cc1)N/C(=N/c1cccnc1)NC#N (stereo not drawn) | – | 5.00 | –
CN(C)S(=O)(=O)N/C(=N\C(NC(=O)c1ccc(Cl)cc1)C(C)(C)C)Nc1cccnc1 (stereo not drawn) | – | < 4.00 | –
C=CC(C)(C)CC(NC(=O)c1ccc(Cl)cc1)N/C(=N/c1cccnc1)NC#N (stereo not drawn) | – | 5.00 | –

Other lines, results leading:

pEC50 [1] | pEC50 [2] | Log EC50 [3] | Structure (SMILES)
5.30 | 5.30 | – | CCC(CC)(CCC#N)C(NC(=O)c1ccc(Cl)cc1)NC(=NC#N)Nc1cccnc1 (stereo not drawn)
5.60 | 5.70 | – | CC(Cl)(Cl)C(NC(=O)c1ccc(Cl)cc1)NC(=NC#N)Nc1cccnc1 (stereo not drawn)
– | 5.30 | – | Cc1cccc(C(=O)NC(/N=C(\NC#N)Nc2cccnc2)C(C)(Cl)Cl)c1 (stereo not drawn)
5.80 | 5.50 | – | CC(Cl)(Cl)C(NC(=O)c1cccc(Cl)c1)N/C(=N/c1cccnc1)NC#N (stereo not drawn)
5.70 | 6.10 | – | O=C(NC(NC(=S)Nc1cccnc1)C(Cl)(Cl)Cl)c1ccc(Cl)cc1 (stereo not drawn)
5.30 | 5.40 | – | CC(Cl)(Cl)C(NC(=O)c1cc(F)cc(F)c1)N/C(=N/c1cccnc1)NC#N (stereo not drawn)
5.10 | 5.60 | – | CC(C)(C)C(NC(=O)c1ccc(Cl)cc1)N/C(S)=N/c1cccnc1 (stereo not drawn)
– | 5.60 | – | Cc1ccc(C(=O)NC(/N=C(\NC#N)Nc2cccnc2)C(C)(Cl)Cl)cc1 (stereo not drawn)
5.70 | 6.00 | – | N#CN/C(=N\C(NC(=O)c1ccc(Cl)cc1)C(Cl)(Cl)Cl)Nc1cccnc1 (stereo not drawn)
5.30 | 6.50 | – | CC(Cl)(Cl)[C@@H](NC(=O)c1ccc(Cl)cc1)N/C(=N/C#N)Nc1cccnc1
– | 5.40 | – | CC(Cl)(Cl)C(NC(=O)c1cccc(F)c1)N/C(=N/c1cccnc1)NC#N (stereo not drawn)
